Source: patent US20080161396A1, “Method of control of arthropod pests of game and pet birds” (priority 2006, published 2008)
Several values for one entry are separate records, joined by “and”; a condition that tells them apart may be missing. Equal entries are not always repeated. Entries after “also recorded” stand apart in the source; their conditions may differ.

Key:
ticks [1] = details: pour on; high tick site; cited from earlier work
[2] = Hen survival of treated and control red grouse hens; type: in vivo, red grouse (Lagopus lagopus scoticus); details: for % hens alive after 6 months: alive in October
Experimental: (§1) The experiment was conducted on two sites located in the North of Scotland (March-October). In outline, on each Moor, hens were either treated with permethrin leg bands or with untreated band. After hatching, chicks from treated hens were also tagged and treated with permethrin partagial bands, while chicks from control brood were tagged but not treated with permethrin. The experiment was conducted on Tullybeagles Estate in Perthshire (hereafter referred as to Moor 1) and Forest of Birse Estate on Deeside (hereafter Moor 2). Both Moors are managed for grouse (heather burning, predator control, worm control) and had low grouse densities and low productivity in recent years.
(§2) Catching and treatment of hens. In spring (18 March-6 April), 40 hens were caught on Moor 1 and 20 on Moor 2. Each was randomly assigned to one of two treatments. Half the birds caught at each site were treated (i.e., given acaracide leg bands, two per bird), or kept as control (untreated bands). Hens were fitted with radio collars (TW-3, Biotrack) to facilitate relocation. Birds were aged, weighed, wing length measured and condition score recorded. All hens were dosed with anthelminthic (Levamisole hydrochloride 3%) to remove nematode parasites. Nematodes are well known for their negative effects on grouse breeding success and survival (Hudson, 1986), so removing them standardized the birds for this possible source of variation.

[3] = Breeding success, brood size, chick survival and chick growth of red grouse (treated vs control hens/broods); type: in vivo, red grouse (Lagopus lagopus scoticus); details: for Breeding success (%): only hens alive at the end of breeding season
Experimental: as §1, §2
Laying time. Nests were located by radio tracking and their location recorded using GPS. Clutch size was measured, and all eggs were weighed (with an electronic balance, to the nearest 0.1 g) and measured (length by width, with a caliper, to the nearest 0.1 mm). Egg density was used to estimate hatch dates (see Seivwright, 2004). If clutches were incomplete at first visit, nests were revisited.
Hatching success. Around predicted hatch date (from egg measurements), nests were located using GPS and number of hatched and un-hatched eggs were recorded. Broods were located by radio-tracking hens and chicks were found and counted with the aid of trained pointer dogs.
(§3) Brood survival to 2 weeks +/−5 days and treatment of chicks. Hens were located by radio tracking and pointer dogs were used to locate chicks. As many chicks as possible were captured. […] Brood survival to 1 month days +/−5 days. Hens were located by radio tracking and pointer dogs were used to locate chicks. As many chicks as possible were captured. […] length and tick counts (around head and neck area) were recorded. A blood sample was collected in EDTA coated eppendorfs. At 1 month, because it was difficult to ensure that all the chicks were found during daytime visits with dogs, we also located hens and broods at night by radio tracking and broods were counted using lamp. This provided the best estimate of brood size at 1 month, which was used in subsequent analyses.
Brood size at fledging. Hens were located at around 45 days post hatching. Broods were then flushed and number of chicks was counted.
(§4) Statistical analyses. Tick numbers were modeled using generalized linear mixed models with brood as a random effect and using a poisson error distribution. Tick burdens are known to be much less variable within broods than between broods (Elston et al., 2001). The seasonal pattern was investigated by fitting time as julian day (days from 1st January) and the asymptotic pattern in the data was captured using a quadratic function of julian day (julian day*julian day). The interaction between time and treatment was used to determine if the pattern of tick burden varied between treatments. The relationship between tick burden and age was investigated using chick age as number of days post hatching and the quadratic function of chick age to investigate if there was a significant asymptotic relationship between average brood tick abundance and chick age (a rise and fall in tick numbers in relation to age). […]

ticks [4] = experiment: Tick infestation of red grouse chicks after permethrin band treatment of hens and chicks (field experiment, two Moors); type: in vivo, Ixodes ricinus
Experimental: This experiment assessed the effect of ticks on grouse productivity. The experiment was replicated in two sites located in NE Scotland and Perthshire. On each Moor, hens were either treated with permethrin leg bands or with untreated bands. After hatching, chicks from treated hens were also treated and tagged with a permethrin band attached to a metal patagial tag, while chicks from control broods were tagged with only the metal patagial tags.
as §1, §2, §3
as §4, with “age). Hatching success was modeled using logistic regression (binomial error structure) with the proportion of eggs that hatched as a proportion of the total clutch size as the response variable. Brood survival was modeled using logistic regression (binomial error structure) with the proportion of chicks alive as a proportion of the number of chicks that hatched as the response variable.” for “age).”

CC1(C)[C@H](C(=O)O[C@H](C#N)c2cccc(Oc3ccccc3)c2)[C@@H]1C=C(Br)Br [deltamethrin]
duration of short term effects (ticks [1]): up to 20 days
time by which the effect had waned (ticks [1]): ≤ 40 days

CC1(C)C(C=C(Cl)Cl)C1C(=O)OCc1cccc(Oc2ccccc2)c1 (stereo not drawn) [permethrin]
% hens alive after 6 months ([2]; Moor 1, treated hens): 68.4% and 60%
% hens alive after 6 months ([2]; Moor 2, treated hens): 60% and 68%
hen survival, treated compared with control hens ([2]; overall, FIG. 6): did not differ
effect of treatment on growth (wing length or body mass) of chicks ([3]; Moor 1 & 2 combined, FIG. 4): no effect; also recorded: did not differ
Breeding outcome (success %) ([3]; Moor 1, treated): (21.5%)
Breeding outcome = Total number of young fledged ([3]; Moor 1, treated): 40
Brood size at 1 month ([3]; Moor 1, treated): 3.6 ± 2.9
Brood size at 2 weeks ([3]; Moor 1, treated): 6.0 ± 2.7
Brood size at fledging ([3]; Moor 1, treated): 2.7 ± 2.9
Hatched brood size ([3]; Moor 1, treated): 8.5 ± 3.2
Breeding success (%) ([3]; Moor 1, treated): 35.9 ± 27.2%
Breeding outcome (success %) ([3]; Moor 2, treated): (10.9%)
Breeding outcome = Total number of young fledged ([3]; Moor 2, treated): 5
Brood size at 1 month ([3]; Moor 2, treated): 2.0 ± 2.0
Brood size at 2 weeks ([3]; Moor 2, treated): 3.4 ± 1.0
Brood size at fledging ([3]; Moor 2, treated): 1.0 ± 1.2
Hatched brood size ([3]; Moor 2, treated): 8.1 ± 2.4
Breeding success (%) ([3]; Moor 2, treated): 12.8 ± 13.7%
effect of hen treatment on number of eggs that hatched as a proportion of the clutch size (hatching success) ([3]; both Moors): no effect
effect of treatment on brood size at 1 month of age ([3]; both Moors): no effect
effect of treatment on brood size at 2 weeks of age ([3]; both Moors): no effect
effect of treatment on brood size at fledging ([3]; both Moors, late July): no effect
effect of treatment on chick survival rates ([3]; discussion summary): no effect
hatched chicks alive at approximately 2 weeks of age ([3]; treated group (CL=57-71%), control 58%): 65%
tick infestation rates of treated chicks compared with untreated chicks from treated mothers (ticks [4]; across season, FIG. 1): significantly lower
number of chicks with patagial treatment band found with ticks (ticks [4]; chicks carrying patagial band): one
average tick counts on treated chicks compared with control chicks (ticks [4]; chicks with permethrin patagial band, taking into account seasonal pattern, FIG. 1): significantly lower
average ticks per chick in untreated chicks from treated hens compared with control broods (ticks [4]; hen treatment only (leg bands), across the season, FIG. 1): significantly lower
tick infestation in untreated chicks from treated hens compared with controls in relation to chick age (ticks [4]; hen treatment only, by chick age, FIG. 2): significantly lower
tick infestation levels in untreated chicks from treated hens (ticks [4]; hen treatment only, discussion summary): very low
peak tick numbers in untreated chicks from treated hens relative to controls (ticks [4]; hen treatment only, fraction of that found in controls): about one third
peak tick numbers in untreated chicks from treated hens (ticks [4]; hen treatment only, seasonal pattern): around 4 ticks per chick
tick infestation rates of treated chicks compared with untreated chicks from treated mothers (ticks [4]; in relation to chick age): no significant difference
maximum mean infestation rate in the treated group (ticks [4]; treated chicks, age 0 to 55 days, FIG. 2, control around 12): less than 2 ticks per chick
tick numbers of treated chicks compared with controls in relation to age (ticks [4]; treated chicks, age range 0 to 55 days, FIG. 2): significantly lower
tick infestation after directly treating chicks with acaracide (ticks [4]; treated chicks, discussion summary): negligible levels
peak average tick numbers per chick in the treated group (ticks [4]; treated chicks, seasonal pattern, FIG. 1, control peak around 13): 2 ticks per chick per brood
